Assay results as given in paper PMC10866072, “Design, synthesis, molecular modelling and biological evaluation of novel 6-amino-5-cyano-2-thiopyrimidine derivatives as potent anticancer agents against leukemia and apoptotic inducers” (Journal of Enzyme Inhibition and Medicinal Chemistry, 2024).

How the values were obtained:
SF-539 = format: cell-based; conditions: one dose 10^-5 M, 48 h
A498 = format: cell-based; conditions: one dose 10^-5 M, 48 h
MDA-MB-231/ATCC = format: cell-based; conditions: one dose 10^-5 M, 48 h
HCT-15 = format: cell-based; conditions: one dose 10^-5 M, 48 h
LOX IMVI = format: cell-based; conditions: one dose 10^-5 M, 48 h
HS 578T = format: cell-based; conditions: one dose 10^-5 M, 48 h, HS 578T
UACC-257 = format: cell-based; conditions: one dose 10^-5 M, 48 h
HOP-62 = format: cell-based; conditions: one dose 10^-5 M, 48 h
COLO 205 = format: cell-based; conditions: one dose 10^-5 M, 48 h
MALME-3M = format: cell-based; conditions: one dose 10^-5 M, 48 h
SW-620 = format: cell-based; conditions: one dose 10^-5 M, 48 h
KM12 = format: cell-based; conditions: one dose 10^-5 M, 48 h
SN12C = format: cell-based, human; conditions: one dose 10^-5 M, 48 h
[1] = tested on: full NCI 60 cell lines panel; conditions: for activity on all 60 cancer cell lines tested (in words): one dose
MDA-MB-468 = format: cell-based; conditions: one dose 10^-5 M, 48 h
OVCAR-5 = format: cell-based; conditions: one dose 10^-5 M, 48 h
HCT-116 = format: cell-based; conditions: one dose 10^-5 M, 48 h
BT-549 = format: cell-based; conditions: one dose 10^-5 M, 48 h
CCRF-CEM = format: cell-based; conditions: one dose 10^-5 M, 48 h
786-0 = format: cell-based; conditions: one dose 10^-5 M, 48 h
T-47D = format: cell-based; conditions: one dose 10^-5 M, 48 h
K-562 = format: cell-based; conditions: 48 h
EKVX = format: cell-based; conditions: one dose 10^-5 M, 48 h
A549/ATCC = format: cell-based; conditions: one dose 10^-5 M, 48 h
TK-10 = format: cell-based; conditions: one dose 10^-5 M, 48 h
RXF 393 = format: cell-based; conditions: Homo sapiens, RXF 393, 48 h, one dose 10^-5 M, 48 h, read-out: % growth
HL-60(TB) = format: cell-based; conditions: one dose 10^-5 M, 48 h
OVCAR-8 = format: cell-based; conditions: one dose 10^-5 M, 48 h
SK-MEL-28 = format: cell-based; conditions: one dose 10^-5 M, 48 h
DU-145 = format: cell-based; conditions: one dose 10^-5 M, 48 h
HT29 = format: cell-based; conditions: 48 h
IGROV1 = format: cell-based; conditions: 48 h
UO-31 = format: cell-based; conditions: one dose 10^-5 M, 48 h
HCC-2998 = format: cell-based; conditions: one dose 10^-5 M, 48 h
NCI-H522 = format: cell-based; conditions: one dose 10^-5 M, 48 h
MOLT-4 = format: cell-based; conditions: one dose 10^-5 M, 48 h
NCI-H23 = format: cell-based; conditions: one dose 10^-5 M, 48 h
SK-OV-3 = format: cell-based; conditions: one dose 10^-5 M, 48 h
SR = format: cell-based; conditions: one dose 10^-5 M, 48 h
SF-268 = format: cell-based; conditions: one dose 10^-5 M, 48 h
NCI-H226 = format: cell-based; conditions: one dose 10^-5 M, 48 h
MCF7 = format: cell-based; conditions: one dose 10^-5 M, 48 h
PC-3 = format: cell-based; conditions: one dose 10^-5 M, 48 h
ACHN = format: cell-based; conditions: one dose 10^-5 M, 48 h
SF-295 = format: cell-based; conditions: one dose 10^-5 M, 48 h
HOP-92 = format: cell-based; conditions: one dose 10^-5 M, 48 h
OVCAR-4 = format: cell-based; conditions: one dose 10^-5 M, 48 h
SNB-19 = format: cell-based; conditions: one dose 10^-5 M, 48 h
M14 = format: cell-based; conditions: one dose 10^-5 M, 48 h
NCI-H460 = format: cell-based; conditions: one dose 10^-5 M, 48 h
RPMI-8226 = format: cell-based; conditions: one dose 10^-5 M, 48 h
SK-MEL-2 = format: cell-based; conditions: one dose 10^-5 M, 48 h
CAKI-1 = format: cell-based; conditions: one dose 10^-5 M, 48 h
U251 = format: cell-based; conditions: 48 h
OVCAR-3 = format: cell-based; conditions: one dose 10^-5 M, 48 h
NCI/ADR-RES = format: cell-based; conditions: one dose 10^-5 M, 48 h
SK-MEL-5 = format: cell-based; conditions: one dose 10^-5 M, 48 h
UACC-62 = format: cell-based; conditions: one dose 10^-5 M, 48 h
MDA-MB-435 = format: cell-based; conditions: one dose 10^-5 M, 48 h
SNB-75 = format: cell-based; conditions: one dose 10^-5 M, 48 h
[2] = Homo sapiens, read-out: % growth

Molecule `N=C(NN=Cc1ccc(Cl)cc1)c1c(N)nc(S)nc1-c1ccc(Cl)cc1Cl` [Compound 4n, 4-Amino-N'-[(4-chlorophenyl)methylene]-6–(2,4-dichlorophenyl)-2-mercapto pyrimidine-5-carboximidohydrazide] has a % growth at 10 µM (SF-539; Homo sapiens) of 87.3%, a % growth at 10 µM (A498; Homo sapiens) of 122% and a % growth at 10 µM (MDA-MB-231/ATCC; Homo sapiens) of 82.5%. The activity at 10 µM (HCT-15; [2]) was 101%, the activity at 10 µM (LOX IMVI; [2]) was 95.4% and the activity at 10 µM (HS 578T; [2]) was 102%. The percent cell growth at 10 µM (UACC-257; Homo sapiens) was 108%, the % growth at 10 µM (HOP-62; Homo sapiens) was 83.1% and the % growth at 10 µM (COLO 205; Homo sapiens) was 114%. It also gave a % growth at 10 µM (MALME-3M; Homo sapiens) of 81.6%, a % growth at 10 µM (SW-620; Homo sapiens) of 106% and a % growth at 10 µM (KM12; Homo sapiens) of 108%. For the same molecule, the % growth at 10 µM (SN12C; Homo sapiens) was 90.1%, the activity at 10 µM ([1]; Homo sapiens, 60 cell, 48 h, read-out: Mean % growth) was 97.2% and the “activity on all 60 cancer cell lines tested (in words)” value [1] was “weak activity”. For the same molecule, the percent cell growth at 10 µM (MDA-MB-468; Homo sapiens) was 96.1%, the percent cell growth at 10 µM (OVCAR-5; Homo sapiens) was 105% and the activity at 10 µM (HCT-116; [2]) was 94.6%. It also gave a % cell growth at 10 µM (BT-549; Homo sapiens) of 92.6%, a % cell growth at 10 µM (CCRF-CEM; Homo sapiens) of 106% and a % growth at 10 µM (786-0; Homo sapiens) of 78%. For the same molecule, the activity at 10 µM (T-47D; Homo sapiens, T47D, read-out: % growth) was 92.6%, the % growth at 10 µM (K-562; Homo sapiens, K562, one dose 10^-5 M) was 89.9% and the % cell growth at 10 µM (EKVX; Homo sapiens) was 108%. For the same molecule, the % growth at 10 µM (A549/ATCC; Homo sapiens) was 95.8%, the % cell growth at 10 µM (TK-10; Homo sapiens) was 143% and the activity at 10 µM (RXF 393) was 84.7%. The % growth at 10 µM (HL-60(TB); Homo sapiens) was 108%, the % growth of cells at 10 µM (OVCAR-8; Homo sapiens) was 91.2% and the % cell growth at 10 µM (SK-MEL-28; Homo sapiens) was 106%. For the same molecule, the % growth at 10 µM (DU-145; Homo sapiens) was 109%, the % growth at 10 µM (HT29; Homo sapiens, HT-29, one dose 10^-5 M) was 121% and the activity at 10 µM (IGROV1; Homo sapiens, IGROV-1, one dose 10^-5 M, read-out: % growth) was 97%. It also gave a % cell growth at 10 µM (UO-31; Homo sapiens, UO-31, 48 h) of 93.2%, a % growth at 10 µM (HCC-2998; Homo sapiens) of 101% and a % growth at 10 µM (NCI-H522; Homo sapiens) of 90.6%. The activity at 10 µM (MOLT-4; [2]) was 92.4%, the activity at 10 µM (NCI-H23; [2]) was 92.9% and the % growth at 10 µM (SK-OV-3; Homo sapiens) was 92.2%. The percent cell growth at 10 µM (SR; Homo sapiens) was 90.6%, the activity at 10 µM (SF-268; [2]) was 100% and the % growth at 10 µM (NCI-H226; Homo sapiens) was 86.3%. It also gave an activity at 10 µM (MCF7; [2]) of 83.6%, a percent cell growth at 10 µM (PC-3; Homo sapiens) of 102% and a % growth at 10 µM (ACHN; Homo sapiens) of 83.7%. The % cell growth at 10 µM (SF-295; Homo sapiens) was 73.4%, the % growth at 10 µM (HOP-92; Homo sapiens) was 64.2% and the % growth at 10 µM (OVCAR-4; Homo sapiens) was 107%. It also gave an activity at 10 µM (SNB-19; [2]) of 90.9%, a % growth at 10 µM (M14; Homo sapiens) of 95.6% and an activity at 10 µM (NCI-H460; [2]) of 102%. It also gave a % growth at 10 µM (RPMI-8226; Homo sapiens) of 102%, a % growth at 10 µM (SK-MEL-2; Homo sapiens) of 108% and a % growth at 10 µM (CAKI-1; Homo sapiens, CAKI-1, 48 h) of 98.6%. The % growth at 10 µM (U251; Homo sapiens, U-251, one dose 10^-5 M) was 70.5%, the % growth at 10 µM (OVCAR-3; Homo sapiens) was 110% and the cell growth percent at 10 µM (NCI/ADR-RES; Homo sapiens) was 105%. It also gave an activity at 10 µM (SK-MEL-5; [2]) of 103%, a % growth at 10 µM (UACC-62; Homo sapiens) of 90.9% and an activity at 10 µM (MDA-MB-435; [2]) of 104%.

With “3-Amino-4-[4-(dimethylamino)phenyl]-1H-pyrazolo[3,4-d]pyrimidine-6-thiol [Compound 3a]” the “% growth” value (SF-539) was 108.53%, the “% growth” value (A498) was 162.31% and the “% growth” value (MDA-MB-231/ATCC) was 98.99%. The “% growth” value (HCT-15) was 95.53%, the “% growth” value (LOX IMVI) was 97.52% and the “% growth” value (HS 578T) was 108.39%. The “% growth” value (UACC-257) was 110.00%, the “% growth” value (HOP-62) was 108.87% and the “% growth” value (COLO 205) was 120.31%. The “% growth” value (MALME-3M) was 102.71%, the “% growth” value (SW-620) was 115.71% and the “% growth” value (KM12) was 97.17%. The “% growth” value (SN12C) was 100.69%, the “activity on all 60 cancer cell lines tested (in words)” value [1] was “weak activity” and the Mean % growth ([1]; one dose 10^-5 M, 48 h, mean over all cell lines) was 103.40%. For the same molecule, the “% growth” value (MDA-MB-468) was 115.89%, the “% growth” value (OVCAR-5) was 107.30% and the “% growth” value (HCT-116) was 101.11%. The “% growth” value (BT-549) was 95.32%, the “% growth” value (CCRF-CEM) was 77.55% and the “% growth” value (786-0) was 109.39%. For the same molecule, the “% growth” value (T-47D) was 102.75%, the “% growth” value (K-562; one dose 10^-5 M) was 102.48% and the “% growth” value (EKVX) was 97.12%. For the same molecule, the “% growth” value (A549/ATCC) was 110.12%, the “% growth” value (TK-10) was 119.65% and the “% growth” value (HL-60(TB)) was 89.88%. For the same molecule, the “% growth” value (OVCAR-8) was 104.18%, the “% growth” value (SK-MEL-28) was 112.69% and the “% growth” value (DU-145) was 116.81%. The “% growth” value (SNB-75) was 116.67%, the “% growth” value (HT29; one dose 10^-5 M) was 108.47% and the “% growth” value (IGROV1; one dose 10^-5 M) was 104.23%. The “% growth” value (UO-31) was 58.31%, the “% growth” value (HCC-2998) was 108.59% and the “% growth” value (NCI-H522) was 92.08%. For the same molecule, the “% growth” value (MOLT-4) was 100.00%, the “% growth” value (NCI-H23) was 98.77% and the “% growth” value (SK-OV-3) was 107.23%. For the same molecule, the “% growth” value (SR) was 90.80%, the “% growth” value (SF-268) was 105.34% and the “% growth” value (NCI-H226) was 95.19%. For the same molecule, the “% growth” value (MCF7) was 88.54%, the “% growth” value (PC-3) was 78.25% and the “% growth” value (ACHN) was 92.14%. The “% growth” value (SF-295) was 105.95%, the “% growth” value (HOP-92) was 116.09% and the “% growth” value (OVCAR-4) was 103.10%. For the same molecule, the “% growth” value (SNB-19) was 101.52%, the “% growth” value (M14) was 99.09% and the “% growth” value (NCI-H460) was 108.52%. For the same molecule, the “% growth” value (RPMI-8226) was 86.49%, the “% growth” value (SK-MEL-2) was 111.64% and the “% growth” value (CAKI-1) was 92.97%. The “% growth” value (U251; one dose 10^-5 M) was 109.49%, the “% growth” value (OVCAR-3) was 116.36% and the “% growth” value (NCI/ADR-RES) was 103.45%. The “% growth” value (SK-MEL-5) was 104.39%, the “% growth” value (UACC-62) was 97.30% and the “% growth” value (MDA-MB-435) was 109.49%.
